Activity calls are given as the source filed them. The calls are words filed in the database; no cut-off is given here.
Experiments:
[1] = target: T1, Procollagen-lysine,2-oxoglutarate 5-dioxygenase 2 (Homo sapiens, UniProt O00469); test: Inhibition of human recombinant LH2 expressed in CHO cells incubated for 30 mins by luciferase-based Succinate-GloTM JmjC Demethylase/Hydroxylase Assay; type: cell-based
T1 sequence (O00469 whole entry): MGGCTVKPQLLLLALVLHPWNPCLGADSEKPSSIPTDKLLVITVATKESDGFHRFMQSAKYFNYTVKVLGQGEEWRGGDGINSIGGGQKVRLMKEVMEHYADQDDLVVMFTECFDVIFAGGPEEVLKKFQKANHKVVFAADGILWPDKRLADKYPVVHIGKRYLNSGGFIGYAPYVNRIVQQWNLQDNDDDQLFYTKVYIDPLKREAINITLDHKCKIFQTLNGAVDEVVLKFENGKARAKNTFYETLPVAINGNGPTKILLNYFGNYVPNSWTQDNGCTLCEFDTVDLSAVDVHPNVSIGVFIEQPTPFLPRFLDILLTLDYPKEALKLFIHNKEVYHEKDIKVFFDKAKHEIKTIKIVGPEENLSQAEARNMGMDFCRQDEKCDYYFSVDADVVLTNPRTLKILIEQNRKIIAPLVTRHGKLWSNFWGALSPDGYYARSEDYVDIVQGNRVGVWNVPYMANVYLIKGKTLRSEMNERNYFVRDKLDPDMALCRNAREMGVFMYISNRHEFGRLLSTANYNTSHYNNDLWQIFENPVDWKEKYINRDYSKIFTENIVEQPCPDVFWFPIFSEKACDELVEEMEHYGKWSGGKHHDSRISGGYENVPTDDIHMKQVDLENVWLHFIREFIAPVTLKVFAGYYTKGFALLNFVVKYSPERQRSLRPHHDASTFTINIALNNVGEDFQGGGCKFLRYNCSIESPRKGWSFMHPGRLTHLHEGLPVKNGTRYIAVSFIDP

[2] = target: T2, Procollagen-lysine,2-oxoglutarate 5-dioxygenase 1 (Homo sapiens, UniProt Q02809); test: Inhibition of human recombinant LH1 expressed in CHO cells incubated for 30 mins by luciferase-based Succinate-GloTM JmjC Demethylase/Hydroxylase Assay; type: cell-based
T2 sequence (Q02809 whole entry): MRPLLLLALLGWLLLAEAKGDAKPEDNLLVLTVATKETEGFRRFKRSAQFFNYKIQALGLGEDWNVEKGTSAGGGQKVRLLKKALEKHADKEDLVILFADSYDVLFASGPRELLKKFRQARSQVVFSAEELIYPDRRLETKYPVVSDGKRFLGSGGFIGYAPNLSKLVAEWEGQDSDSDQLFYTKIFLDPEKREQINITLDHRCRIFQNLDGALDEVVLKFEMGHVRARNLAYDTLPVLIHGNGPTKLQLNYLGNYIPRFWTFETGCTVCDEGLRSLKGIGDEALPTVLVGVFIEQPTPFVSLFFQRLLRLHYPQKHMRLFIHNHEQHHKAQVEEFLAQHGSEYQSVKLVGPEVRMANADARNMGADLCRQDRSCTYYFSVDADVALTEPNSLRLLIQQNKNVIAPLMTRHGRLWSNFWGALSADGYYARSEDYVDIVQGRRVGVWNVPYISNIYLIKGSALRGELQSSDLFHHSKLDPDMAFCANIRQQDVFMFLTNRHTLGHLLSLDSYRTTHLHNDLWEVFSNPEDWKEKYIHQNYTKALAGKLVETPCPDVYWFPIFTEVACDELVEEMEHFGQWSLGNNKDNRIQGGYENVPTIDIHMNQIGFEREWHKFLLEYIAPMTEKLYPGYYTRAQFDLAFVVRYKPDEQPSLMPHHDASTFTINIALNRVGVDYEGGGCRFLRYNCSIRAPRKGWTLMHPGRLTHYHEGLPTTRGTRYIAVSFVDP

[3] = target: T3, Multifunctional procollagen lysine hydroxylase and glycosyltransferase LH3 (Homo sapiens, UniProt O60568); test: Inhibition of human recombinant LH3 expressed in CHO cells incubated for 30 mins by luciferase-based Succinate-GloTM JmjC Demethylase/Hydroxylase Assay; type: cell-based
T3 sequence (O60568 whole entry): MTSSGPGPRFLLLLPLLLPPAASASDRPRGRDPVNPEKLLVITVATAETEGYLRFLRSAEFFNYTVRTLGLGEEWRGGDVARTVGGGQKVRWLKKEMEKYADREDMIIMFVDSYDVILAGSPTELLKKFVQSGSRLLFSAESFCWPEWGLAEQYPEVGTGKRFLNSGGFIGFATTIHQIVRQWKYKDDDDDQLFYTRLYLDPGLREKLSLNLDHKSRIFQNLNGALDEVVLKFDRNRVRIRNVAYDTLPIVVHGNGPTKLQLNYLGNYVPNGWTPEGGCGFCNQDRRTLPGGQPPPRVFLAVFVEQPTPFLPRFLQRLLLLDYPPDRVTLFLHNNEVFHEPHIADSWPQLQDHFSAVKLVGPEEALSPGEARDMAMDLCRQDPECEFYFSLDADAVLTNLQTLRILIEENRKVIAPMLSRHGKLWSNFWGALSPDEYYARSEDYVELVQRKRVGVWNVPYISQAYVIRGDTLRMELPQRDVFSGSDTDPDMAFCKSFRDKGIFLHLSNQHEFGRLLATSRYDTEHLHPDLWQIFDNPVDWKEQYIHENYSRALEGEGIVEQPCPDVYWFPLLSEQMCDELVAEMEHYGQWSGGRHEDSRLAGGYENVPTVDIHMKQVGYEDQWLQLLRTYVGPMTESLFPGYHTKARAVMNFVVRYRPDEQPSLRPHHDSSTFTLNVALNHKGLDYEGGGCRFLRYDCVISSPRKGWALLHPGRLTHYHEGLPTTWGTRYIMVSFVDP

Homo sapiens [4] = organism: Homo sapiens; test: Selectivity ratio of IC50 for inhibition of human recombinant LH1 to IC50 for inhibition of human recombinant LH2; conditions: time 30.0 min
Homo sapiens [5] = organism: Homo sapiens; test: Selectivity ratio of IC50 for inhibition of human recombinant LH3 to IC50 for inhibition of human recombinant LH2
[6] = target: T4, Lysine-specific demethylase 4A (Homo sapiens) (UniProt O75164); test: Inhibition of JMJD2A (unknown origin) at 11 uM by Succinate-Glo kit assay
T4 sequence (whole entry): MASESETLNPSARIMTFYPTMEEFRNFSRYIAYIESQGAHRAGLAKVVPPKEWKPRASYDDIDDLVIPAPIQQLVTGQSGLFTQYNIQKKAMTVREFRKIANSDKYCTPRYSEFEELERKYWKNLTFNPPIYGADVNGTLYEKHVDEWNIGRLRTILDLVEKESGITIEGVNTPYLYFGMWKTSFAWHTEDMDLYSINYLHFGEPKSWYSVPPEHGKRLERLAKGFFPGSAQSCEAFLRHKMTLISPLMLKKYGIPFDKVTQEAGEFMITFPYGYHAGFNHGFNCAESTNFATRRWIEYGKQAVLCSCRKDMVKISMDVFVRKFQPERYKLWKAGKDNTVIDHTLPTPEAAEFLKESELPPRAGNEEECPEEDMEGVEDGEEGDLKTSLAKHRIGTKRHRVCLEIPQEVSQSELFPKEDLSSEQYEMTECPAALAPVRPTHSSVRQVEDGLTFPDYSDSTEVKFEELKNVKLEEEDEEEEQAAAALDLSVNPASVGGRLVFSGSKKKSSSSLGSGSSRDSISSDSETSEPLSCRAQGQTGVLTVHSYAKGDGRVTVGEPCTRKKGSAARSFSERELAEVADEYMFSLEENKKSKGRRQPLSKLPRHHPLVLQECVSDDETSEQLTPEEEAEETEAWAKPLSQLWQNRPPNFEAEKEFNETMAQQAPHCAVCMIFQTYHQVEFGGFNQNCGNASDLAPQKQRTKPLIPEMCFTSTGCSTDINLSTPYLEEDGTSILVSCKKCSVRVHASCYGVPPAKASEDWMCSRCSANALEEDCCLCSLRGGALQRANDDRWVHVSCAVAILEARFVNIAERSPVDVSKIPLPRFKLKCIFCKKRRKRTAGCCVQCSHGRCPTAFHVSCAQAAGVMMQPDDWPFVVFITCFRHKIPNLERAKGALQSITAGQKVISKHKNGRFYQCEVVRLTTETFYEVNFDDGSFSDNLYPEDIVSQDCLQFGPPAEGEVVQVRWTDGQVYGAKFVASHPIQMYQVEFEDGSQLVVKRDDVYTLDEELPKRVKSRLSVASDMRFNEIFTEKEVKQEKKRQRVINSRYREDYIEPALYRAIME

344SQ = test: Antiproliferative activity against mouse wild type 344SQ cells assessed as reduction in cell viability observed after 48 hrs by CCK-8 assay; type: functional, cell-based

| Compound | IC50 ([1]; read-out: IC50) | other results |
| --- | --- | --- |
| CN1CCN(c2cccc(C(=O)CC(=O)c3nnn[nH]3)c2)CC1 | > 10 µM |  |
| O=C(c1cccnc1)C1CCc2cc(Cl)ccc2C1=O (stereo not drawn) |  | IC50 ([1]; cho): Not Active |
| O=C(CC(=O)c1cccnc1)c1ccc(C(F)(F)F)cc1 |  | IC50 ([1]; cho): Not Active |
| O=C(CC(=O)c1cccnc1)c1ccc([N+](=O)[O-])cc1 | > 10 µM |  |
| O=C(c1cccnc1)C1CCc2cc(F)ccc2C1=O (stereo not drawn) | > 10 µM |  |
| O=C(CC(=O)c1ccncc1)c1ccccc1 | 1 µM | IC50 [2]: 6.4 µM; IC50 [3]: 5.2 µM; Selectivity ratio (Homo sapiens [4]): 6; Selectivity ratio (Homo sapiens [5]): 5; inhibition [6]: Active |
| O=C(CC(=O)c1cccnc1)c1ccccc1 | 5 µM |  |
| O=C(CC(=O)C(F)(F)F)c1ccc([N+](=O)[O-])cc1 | > 10 µM |  |
| CN1CCN(c2cccc(C(=O)CC(=O)c3ccncc3)c2)CC1 |  | Activity (344SQ): inactive |
| Cc1ccc(C(=O)CC(=O)c2cccc(N3CCOCC3)c2)cc1 |  | IC50 ([1]; cho): Not Active |

Second part, led by results:

| IC50 ([1]; read-out: IC50) | Compound | other results |
| --- | --- | --- |
| > 10 µM | O=C(CC(=O)c1nnn[nH]1)c1cccc(N2CCOCC2)c1 |  |
| > 10 µM | CN1CCN(c2cccc(-c3cc(-c4ccncc4)n[nH]3)c2)CC1 |  |
| > 10 µM | c1cc(-c2cc(-c3ccncc3)n[nH]2)cc(N2CCOCC2)c1 |  |

Source: ChEMBL document CHEMBL5365547, “Unleashing the Potential of 1,3-Diketone Analogues as Selective LH2 Inhibitors” (ACS Med Chem Lett, 2023)
